Assay results as given in patent US20020119141A1, “Biochemical methods that eliminate corneal scars, opacification and haze” (priority 1999, published 2002).
Like-named read-outs stand apart in the source and are kept apart here.

Test system: eyes of rabbits
From the text: Fifty-two (52) healthy rabbits of the New Zealand Cross variety (26 male, 26 female) weighing 1.5 kg to 2.5 kg were individually marked for identification and were housed individually in suspended cages. The animals received a commercially available pelleted rabbit feed on a daily basis, with tap water available ad libitum.
The animals were divided into thirteen groups of 4 animals each (2 males, 2 femals). Two animals in each group (1 male, 1 female) were selected for pretreatment fundus photography and fluorescein angiography.
The fundus photography was performed by restraining the animals and visualizing the optic nerve, retinal arcades and fundus with a KOWA® RC-3 Fundus Camera loaded with Kodak Gold 200 ASA film.
The fluorescein angiography involved a 1.5-ml injection of 2% sterile fluorescein solution via the marginal ear vein. Approximately 30 seconds post-injection the fluorescein was visualized upon localization of the optic nerve, retinal vessels and fundus.
The following day, each animal was anesthetized by intravenous administration of a combination of 34 mg/kg of ketamine hydrochloride and 5-mg/kg xylazine. The eyelids were retracted using a lid speculum, and the eyes were disinfected with an iodine-povidone wash.
The experimental treatments administered to each animal group were as follows:
The day following the injections (Day 1) the 26 animals, which were subjected to the fundus photography and fluorescein angiography, were observed using the same methods as for the pre-dose examination.
The eyes were then surgically removed and placed in a fixture solution of 2.5% glutaraldehyde with 0.1M phosphate buffered saline at pH 7.37. Alternatively, one randomly selected rabbit was euthanized by pentobarbital injection but then fixed by intracardiac injection of the gluteraldehyde solution into the left ventricle to determine the effect of the fixation procedure on the histology findings within the enucleated eyes.
On Day 7, the 13 female rabbits that had been previously photographed and angiography performed were subjected to same observations following the methods previously described.
The remaining 26 animals were euthanized as described above 7 days after dosing. The eyes were fixed in the same manner as those, which had been fixed on day 2. Also, one randomly selected rabbit was subjected to the same intracardiac gluteraldehyde fixation procedure described hereabove for the previously randomly selected animal.
The eyes of the animals treated in this example were examined grossly and microscopically for evidence of treatment-related toxicities.

In the case of Thimerosal [BSS + Thimerisol], the “treatment-related toxicity of the eyes (gross and microscopic examination)” value (“treatment-related toxicity of the eyes” below) (0.0075 mg thimerosal in BSS, day 2) is reported as “free of toxicity”, the “treatment-related toxicity of the eyes” value (0.0075 mg thimerosal in BSS, day 7, listed as BSS plus thimerosal) is reported as “significant toxic effects” and the “treatment-related toxicity of the eyes” value (0.0075 mg thimerosal in BSS, day 7, listed as BSS+thimerosal) is reported as “breakdown of the blood retinal barrier”. For the same substance, the “treatment-related toxicity of the eyes” value (0.025 mg thimerosal in BSS, day 2 and 7 post dose) was “severe treatment-related toxic effects” and the “toxic effects in the eyes of rabbits (conclusion)” value (intravitreal injection, at the dosages tested) was “do cause toxic effects”.
